# Laboratory results from patent US20230271959A1, “HETEROCYCLIC COMPOUND AS BCL-2 INHIBITOR” (Beijing Innocare Pharma Tech Co., Ltd., priority 2020, published 2023).
# Experiments:
# [1] = system: RS4;11 cells (acute lymphoblastic leukemia cells); experiment: RS4;11 cell proliferation, CellTilter-Glo luminescence cell viability assay; format: cell-based; settings: Homo sapiens, RS4-11; CTG readout after 48 hours
# Experimental: The effects of the compounds of the present invention on the proliferation of RS4;11 cells were evaluated using a luminescence cell viability assay.
# A CellTilter-Glo (CTG) Assay Kit is used to detect ATP, a key indicator of the metabolism of living cells, through a unique, highly sensitive and stable luciferase. The luminescent signal generated in the assay is proportional to the number of the viable cells in the medium, therefore the cell proliferation of RS4;11 can be determined.
# CellTilter-Glo reagent (Promega, G7572) is composed of CellTilter-Glo lyophilized powder and CellTilter-Glo buffer, and the lyophilized powder can be dissolved in the buffer for use.
# RS4;11 cells (ATCC, CRL-1873) were cultured in RPMI1640 complete medium (Thermofisher, 72400-047) containing 10% FBS (GBICO, 10099-141) and 100 units/ml penicillin-streptomycin solution (Thermofisher, 15140122)), when the cells covered 80-90% in the culture vessel, they were digested and dispersed with 0.25% trypsin (containing EDTA) (Thermofisher, 25200056) and then planted in a white 384-well plate (Thermofisher, 164610), and then the 384-well plate was incubated overnight in a 37° C., 5% CO2 incubator. Compounds were dissolved in 100% DMSO and diluted to […], followed by 4-fold serial dilutions with DMSO to a minimum concentration of 0.061 μM, and each concentration point was further diluted 50-fold with FBS-free RPMI1640 medium. If the IC50 of the compound is very low, the initial concentration of the compound can be reduced. After overnight, 3 μL of the compound diluted in the medium was added to each well, and the mixture was gently centrifuged to mix. The group without cells was used as a negative control (100% inhibition), and the group with 0.2% DMSO was used as a positive control (0% inhibition). The 384-well plate was placed in a 37° C., 5% CO2 incubator for further cultivation. After 48 hours, the plate was taken out and equilibrated to room temperature. 15 μl of CTG reagent was added to each well, the plate was shaken gently for 3 minutes to make sure that the cell lysis was carried out thoroughly, then the plate was kept for 10 minutes to stabilize the luminescence signal, then the luminescence signal was read by EnVision (Perkin Elmer).
# The inhibition percentage of the compounds to RS4;11 cell proliferation can be calculated using the following equation:
# Inhibition Percentage=100−100*(signal compound-signal negative control)/(signal positive control-signal negative control)
# (§1) The IC50 of the compound was calculated from 8 concentration points using XLfit (ID Business Solutions Ltd., UK) software by the following equation:
# Y=Bottom+(Top−Bottom)/(1+10^((Log IC50−X)*slope factor))
# wherein, Y is the inhibition percentage, Bottom is the bottom plateau of the curve (the bottom plateau value of the S-shaped curve), Top is the top plateau of the curve (the top plateau value of the S-shaped curve), and X is the logarithm of the concentration of the compound to be tested.
# [2] = target: T1, human recombinant Bcl-XL protein (Homo sapiens, UniProt Q07817); experiment: Fluorescence polarization test for inhibition of BCL-XL binding to FITC-BIM; settings: 10 nM BCL-XL, 10 nM FITC-BIM, read-out: FP BCL-XL IC50
# T1 construct: purchased Beijing Yiqiao Shenzhou Biotechnology Co., Ltd. 10455-H0SE
# T1 sequence (Q07817 whole entry): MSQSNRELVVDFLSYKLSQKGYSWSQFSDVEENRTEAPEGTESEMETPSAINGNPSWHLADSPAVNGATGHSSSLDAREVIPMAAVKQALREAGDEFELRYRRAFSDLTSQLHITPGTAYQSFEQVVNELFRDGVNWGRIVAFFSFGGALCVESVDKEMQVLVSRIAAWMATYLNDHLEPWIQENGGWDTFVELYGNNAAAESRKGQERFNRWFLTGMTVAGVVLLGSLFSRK
# Experimental: Fluorescence polarization assay was used to evaluate the effect of the compounds of the present invention on the biological activity of BCL-XL.
# The effects of the compounds on the biological activity of BCL-XL were evaluated by detecting the effects of the compounds on the binding activity of BCL-XL to BIM using an affinity assay method based on the principle of fluorescence polarization. The reaction buffer contains the following components: PBS (pH 7.4, 3 mM Na2HPO4, 155 mM NaCl, 1 mM KH2PO4), 1 mM DTT; human recombinant Bcl-XL protein (Item No. 10455-H0SE) (purchased from Beijing Yiqiao Shenzhou Biotechnology Co., Ltd.) was diluted to 10 nM with reaction buffer; FITC-labeled BIM polypeptide (purchased from Nanjing GenScript Biotechnology Co., Ltd) was diluted to 10 nM with reaction buffer.
# The compounds were dissolved in 100% DMSO and diluted to 1 μM, followed by 4-fold serial dilutions in DMSO to a minimum concentration of 0.061 nM, each concentration point was further diluted 50-fold with reaction buffer.
# 3 μL of solution containing the compound and 12 μL of solution containing BCL-XL were added to the black 384-well assay plate, mixed well, and incubated at room temperature for 15 minutes. Subsequently, 15 μL of FITC-BIM solution was added, and the reaction mixture was incubated at room temperature for 30 minutes in the dark place, and then the fluorescence polarization was detected immediately on an Envision multi-plate reader (Perkin Elmer), with 480 nm as the excitation wavelength and 535 nm as the emission wavelength. In this experiment, the group without BCL-XL protein was used as a negative control (100% inhibition), and the group with BCL-XL protein but without the compound was added as a positive control (0% inhibition). The inhibition percentage of the compound to the affinity of BCL-XL can be calculated using the following equation: […]
# as §1
# (§2) Y=Bottom+(Top−Bottom)/(1+10^((log IC50−X)*slope factor))
# (§3) where Y is the inhibition percentage, X is the logarithm of the concentration of the compound to be tested, Bottom is the maximum inhibition percentage, Top is the minimum inhibition percentage, and slope factor is the slope coefficient of the curve.
# [3] = target: T2, human recombinant Bcl-2 protein (Homo sapiens, UniProt P10415); experiment: Fluorescence polarization test for inhibition of BCL-2 binding to FITC-BIM; settings: 5 nM BCL-2, 5 nM FITC-BIM, read-out: FP BCL-2 IC50
# T2 construct: purchased Beijing Yigiao Shenzhou Biotechnology Co., Ltd. 10195-HOSE
# T2 sequence (P10415 whole entry): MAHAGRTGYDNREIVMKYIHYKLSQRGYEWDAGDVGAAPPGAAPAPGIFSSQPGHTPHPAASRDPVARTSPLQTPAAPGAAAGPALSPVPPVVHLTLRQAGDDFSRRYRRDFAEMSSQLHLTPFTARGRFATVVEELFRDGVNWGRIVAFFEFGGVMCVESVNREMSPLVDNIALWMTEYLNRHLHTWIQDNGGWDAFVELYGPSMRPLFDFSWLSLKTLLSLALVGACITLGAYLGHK
# Experimental: Fluorescence polarization assay was used to evaluate the effect of the compounds of the present invention on the biological activity of BCL-2.
# The effects of the compounds on the biological activity of BCL-2 were evaluated by determining the effects of the compounds on the binding activity of BCL-2 to leukemia pro-apoptotic protein (BIM) using an affinity assay method based on the principle of fluorescence polarization. The reaction buffer comprises the following components: PBS (pH 7.4, 3 mM Na2HPO4, 155 mM NaCl, 1 mM KH2PO4), 1 mM DTT; human recombinant Bcl-2 protein (Item No. 10195-HOSE) (purchased from Beijing Yigiao Shenzhou Biotechnology Co., Ltd.) was diluted to 5 nM with the reaction buffer; FITC-labeled BIM polypeptide (purchased from Nanjing GenScript Biotechnology Co., Ltd.) was diluted to 5 nM with the reaction buffer.
# The compounds were dissolved in 100% DMSO and diluted to 0.1, 1, 10 μM, followed by 4-fold serial dilutions with DMSO to a minimum concentration of 0.0061, 0.061, 0.61 nM, each concentration point was further diluted 50-fold with the reaction buffer.
# 3 μL of solution containing the compound and 12 μL of solution containing BCL-2 were added to the black 384-well assay plate, mixed well, and incubated at room temperature for 15 minutes. Subsequently, 15 μL of FITC-BIM solution was added, and the reaction mixture was incubated at room temperature for 30 minutes in dark place, and then the fluorescence polarization was detected immediately on an Envision multi-mode reader (Perkin Elmer), with 480 nm as the excitation wavelength and 535 nm as the emission wavelength. In this experiment, the group without BCL-2 protein was used as a negative control (100% inhibition), and the group with BCL-2 protein but without the compound was used as a positive control (0% inhibition). The inhibition percentage of the compound to the affinity of BCL-2 can be calculated using the following equation: […]
# as §1, §2, §3
Compound,IC50 [1],IC50 [2],IC50 [3]
"C[C@H]1CN(c2ccc(C(=O)NS(=O)(=O)c3cc(F)c(NC[C@@H]4COCCO4)c([N+](=O)[O-])c3)c(Oc3cnc4[nH]ccc4c3)c2)CCN1CC1=C(c2ccc(Cl)cc2)CC(C)(C)CC1 [Example 56, N-((4-((((R)-1,4-dioxan-2-yl)methyl)amino)-3-fluoro-5-nitrophenyl)sulfonyl)-2-((1H-pyrrolo[2,3-b]pyridin-5-yl)oxy)-4-((S)-4-((4′-chloro-5,5-dimethyl-3,4,5,6-tetrahydro-[1,1′-biphenyl]-2-yl)methyl)-3-methylpiperazin-1-yl) benzamide]",224 nM,> 1000 nM,82 nM
"C[C@H]1CN(CC2=C(c3ccc(Cl)cc3)CC(C)(C)CC2)CCN1c1ccc(C(=O)NS(=O)(=O)c2ccc(NCC3CCOCC3)c([N+](=O)[O-])c2)c(Oc2cnc3[nH]ccc3c2)c1 [Example 13, (S)-2-((1H-pyrrolo[2,3-b]pyridin-5-yl)oxy)-4-(4-((4′-chloro-5,5-dimethyl-3,4,5,6-tetrahydro-[1,1′-biphenyl]-2-yl)methyl)-2-methylpiperazin-1-yl)-N-((3-nitro-4-(((tetrahydro-2H-pyran-4-yl)methyl)amino)phenyl)sulfonyl)benzamide]",> 500 nM,> 1000 nM,> 100 nM
C[C@@H]1CN(c2ccc(C(=O)NS(=O)(=O)c3ccc(NC[C@H]4COCCO4)c([N+](=O)[O-])c3)c(Oc3cnc4[nH]ccc4c3)c2)CCN1CC1=C(c2ccc(Cl)cc2)CCC2(CC2)C1 [Example 36],21 nM,> 1000 nM,4.78 nM
"C[C@H]1CN(c2ccc(C(=O)NS(=O)(=O)c3ccc(NC[C@H]4COCCO4)c([N+](=O)[O-])c3)c(Oc3cnc4[nH]ccc4c3)c2)CCN1CC1=C(c2ccc(Cl)cc2)CCC(C)(C)C1 [Example 49, N-((4-((((S)-1,4-dioxan-2-yl)methyl)amino)-3-nitrophenyl)sulfonyl)-2-((1H-pyrrolo[2,3-b]pyridin-5-yl)oxy)-4-((S)-4-((4′-chloro-4,4-dimethyl-3,4,5,6-tetrahydro-[1,1′-biphenyl]-2-yl)methyl)-3-methylpiperazin-1-yl) benzamide]",> 500 nM,> 1000 nM,> 100 nM

# Second part, the molecule after the results:
IC50 [1],IC50 [2],IC50 [3],Compound
6.4 nM,> 1000 nM,3.06 nM,"C[C@@H]1CN(c2ccc(C(=O)NS(=O)(=O)c3ccc(NCC4CCN(C5COC5)CC4)c([N+](=O)[O-])c3)c(Oc3cnc4[nH]ccc4c3)c2)CCN1CC1=C(c2ccc(Cl)cc2)CC(C)(C)CC1 [Example 3, (R)-2-((1H-pyrrolo[2,3-b]pyridin-5-yl)oxy)-4-(4-((4′-chloro-5,5-dimethyl-3,4,5,6-tetrahydro-[1,1′-biphenyl]-2-yl)methyl)-3-methylpiperazin-1-yl)-N-((3--nitro-4(((1-(3-oxetanyl)piperidin-4-yl)methyl)amino)phenyl)sulfonyl) benzamide]"
24 nM,> 1000 nM,6.3 nM,C[C@@H]1CCC(CN2CCN(c3ccc(C(=O)NS(=O)(=O)c4ccc(NC[C@H]5COCCO5)c([N+](=O)[O-])c4)c(Oc4cnc5[nH]ccc5c4)c3)[C@H](C)C2)=C(c2ccc(Cl)cc2)C1 [Example 24]
2.37 nM,> 1000 nM,0.9 nM,"C[C@@H]1CN(c2ccc(C(=O)NS(=O)(=O)c3cc(F)c(NC[C@H]4COCCO4)c([N+](=O)[O-])c3)c(Oc3cnc4[nH]ccc4c3)c2)CCN1CC1=C(c2ccc(Cl)cc2)CC(C)(C)CC1 [Example 6, N-((4-((((S)-1,4-dioxan-2-yl)methyl)amino)-3-fluoro-5-nitrophenyl)sulfonyl)-2-((1H-pyrrolo[2,3-b]pyridin-5-yl)oxy)-4-((R)-4-((4′-chloro-5,5-dimethyl-3,4,5,6-tetrahydro-[1,1′-biphenyl]-2-yl)methyl)-3-methylpiperazin-1-yl) benzamide]"
161 nM,> 1000 nM,6.33 nM,"C[C@@H]1CN(CC2=C(c3ccc(Cl)cc3)CCC(C)(C)C2)CCN1c1ccc(C(=O)NS(=O)(=O)c2cc(F)c(NCC3CCOCC3)c([N+](=O)[O-])c2)c(Oc2cnc3[nH]ccc3c2)c1 [Example 43, (R)-2-((1H-pyrrolo[2,3-b]pyridin-5-yl)oxy)-4-(4-((4′-chloro-4,4-dimethyl-3,4,5,6-tetrahydro[1,1′-biphenyl]-2-yl)methyl)-2-methylpiperazin-1-yl)-N-((3-fluoro-5-nitro-4--(((tetrahydro-2H-pyran-4-yl)methyl)amino)phenyl)sulfonyl)benzamide]"
4.73 nM,> 1000 nM,2.05 nM,"C[C@@H]1CN(c2ccc(C(=O)NS(=O)(=O)c3cc(F)c(NCC4CCOCC4)c([N+](=O)[O-])c3)c(Oc3cnc4[nH]ccc4c3)c2)CCN1CC1=C(c2ccc(Cl)cc2)CC(C)(C)CC1 [Example 1, (R)-2-((1H-pyrrolo[2,3-b]pyridin-5-yl)oxy)-4-(4-((4′-chloro-5,5-dimethyl-3,4,5,6-tetrahydro-[1,1′-biphenyl]-2-yl)methyl)-3-methylpiperazin-1-yl)-N-((3-fluoro-5-nitro-4-(((tetrahydro-2H-pyran-4-yl)methyl)amino)phenyl)sulfonyl)benzamide]"
